Reference: ChEMBL document CHEMBL5143505, “Emerging Approaches to Overcome Acquired Drug Resistance Obstacles to Osimertinib in Non-Small-Cell Lung Cancer” (J Med Chem, 2022)
Each block holds one compound with its values, some of them ahead of it.

Key:
[1] = target: T1, Epidermal growth factor receptor (Homo sapiens, UniProt P00533, C797S/L858R/T790M); test: Inhibition of EGFR L858R/T790M/C797S triple mutant (unknown origin)
[2] = Inhibition of p-EGFR Del19/T790M/C797S triple mutant in mouse BaF3 cells; assay type: cell-based
[3] = Antiproliferative against in mouse Ba/F3 EGFR-Del19/T790M/C797S cells; assay type: functional, cell-based
[4] = target: Epidermal growth factor receptor (Homo sapiens, UniProt P00533); test: Inhibition of wild type EGFR (unknown origin)
Epidermal growth factor receptor (Homo sapiens, UniProt P00533), sequence (P00533 whole entry): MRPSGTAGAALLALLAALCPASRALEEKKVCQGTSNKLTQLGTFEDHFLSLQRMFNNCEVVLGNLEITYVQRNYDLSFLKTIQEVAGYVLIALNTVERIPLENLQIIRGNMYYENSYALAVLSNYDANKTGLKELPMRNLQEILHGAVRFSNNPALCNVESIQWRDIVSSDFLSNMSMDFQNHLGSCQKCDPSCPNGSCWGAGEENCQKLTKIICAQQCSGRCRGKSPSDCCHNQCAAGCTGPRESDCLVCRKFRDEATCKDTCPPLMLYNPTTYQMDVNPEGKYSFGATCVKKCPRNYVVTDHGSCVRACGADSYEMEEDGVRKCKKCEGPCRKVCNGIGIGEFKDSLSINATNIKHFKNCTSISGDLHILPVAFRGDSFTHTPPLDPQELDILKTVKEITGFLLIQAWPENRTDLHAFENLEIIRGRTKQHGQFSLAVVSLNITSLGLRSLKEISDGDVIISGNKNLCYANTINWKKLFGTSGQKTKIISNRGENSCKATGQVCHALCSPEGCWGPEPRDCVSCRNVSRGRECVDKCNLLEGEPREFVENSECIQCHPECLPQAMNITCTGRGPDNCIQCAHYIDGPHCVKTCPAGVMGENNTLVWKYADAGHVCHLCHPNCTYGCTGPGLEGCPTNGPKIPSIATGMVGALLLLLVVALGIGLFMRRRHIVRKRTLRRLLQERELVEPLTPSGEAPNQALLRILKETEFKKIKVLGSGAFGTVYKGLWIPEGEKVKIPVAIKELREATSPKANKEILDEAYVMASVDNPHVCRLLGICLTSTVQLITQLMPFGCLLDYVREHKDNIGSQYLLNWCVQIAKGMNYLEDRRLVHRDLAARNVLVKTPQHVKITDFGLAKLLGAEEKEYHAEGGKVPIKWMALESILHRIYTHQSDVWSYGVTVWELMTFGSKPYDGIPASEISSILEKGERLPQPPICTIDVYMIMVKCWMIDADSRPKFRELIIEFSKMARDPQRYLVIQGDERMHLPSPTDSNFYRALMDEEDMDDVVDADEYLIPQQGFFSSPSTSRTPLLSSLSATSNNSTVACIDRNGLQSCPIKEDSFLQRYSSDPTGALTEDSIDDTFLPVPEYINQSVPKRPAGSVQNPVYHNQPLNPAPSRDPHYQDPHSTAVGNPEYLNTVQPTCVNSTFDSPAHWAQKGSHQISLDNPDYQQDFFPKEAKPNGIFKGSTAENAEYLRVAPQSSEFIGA

[5] = target: Epidermal growth factor receptor (Homo sapiens, UniProt P00533, L858R); test: Inhibition of EGFR L858R mutant (unknown origin)
[6] = Antiproliferative against in mouse Ba/F3 EGFR-T790M/C797S/L858R cells; assay type: functional, cell-based
[7] = target: Epidermal growth factor receptor (Homo sapiens, UniProt P00533, C797S/EX19DEL/T790M); test: Inhibition of EGFR Del19/T790M/C797S triple mutant (unknown origin)
Epidermal growth factor receptor (Homo sapiens, UniProt P00533, C797S/EX19DEL/T790M), sequence (P00533 whole entry, looked up, stated change not applied): as the sequence (P00533 whole entry) above

[8] = Inhibition of EGFR L858R/T790M/C797S triple mutant (unknown origin) in mouse BaF3 cells; assay type: cell-based
Homo sapiens = organism: Homo sapiens; test: Selectivity ratio of IC50 for EGFR Del19/T790M/C797S triple mutant (unknown origin) to wild type EGFR (unknown origin)
BaF3 [9] = test: Antiproliferative against in mouse BaF3 EFGR Del19/T790M/C797S cell; assay type: functional, cell-based
[10] = target: T2, Epidermal growth factor receptor (Homo sapiens, UniProt P00533, L858R/T790M); test: Inhibition of EGFR L858R/T790M double mutant (unknown origin)
T2 sequence (P00533 25-1210 T790M/L858R limits assumed): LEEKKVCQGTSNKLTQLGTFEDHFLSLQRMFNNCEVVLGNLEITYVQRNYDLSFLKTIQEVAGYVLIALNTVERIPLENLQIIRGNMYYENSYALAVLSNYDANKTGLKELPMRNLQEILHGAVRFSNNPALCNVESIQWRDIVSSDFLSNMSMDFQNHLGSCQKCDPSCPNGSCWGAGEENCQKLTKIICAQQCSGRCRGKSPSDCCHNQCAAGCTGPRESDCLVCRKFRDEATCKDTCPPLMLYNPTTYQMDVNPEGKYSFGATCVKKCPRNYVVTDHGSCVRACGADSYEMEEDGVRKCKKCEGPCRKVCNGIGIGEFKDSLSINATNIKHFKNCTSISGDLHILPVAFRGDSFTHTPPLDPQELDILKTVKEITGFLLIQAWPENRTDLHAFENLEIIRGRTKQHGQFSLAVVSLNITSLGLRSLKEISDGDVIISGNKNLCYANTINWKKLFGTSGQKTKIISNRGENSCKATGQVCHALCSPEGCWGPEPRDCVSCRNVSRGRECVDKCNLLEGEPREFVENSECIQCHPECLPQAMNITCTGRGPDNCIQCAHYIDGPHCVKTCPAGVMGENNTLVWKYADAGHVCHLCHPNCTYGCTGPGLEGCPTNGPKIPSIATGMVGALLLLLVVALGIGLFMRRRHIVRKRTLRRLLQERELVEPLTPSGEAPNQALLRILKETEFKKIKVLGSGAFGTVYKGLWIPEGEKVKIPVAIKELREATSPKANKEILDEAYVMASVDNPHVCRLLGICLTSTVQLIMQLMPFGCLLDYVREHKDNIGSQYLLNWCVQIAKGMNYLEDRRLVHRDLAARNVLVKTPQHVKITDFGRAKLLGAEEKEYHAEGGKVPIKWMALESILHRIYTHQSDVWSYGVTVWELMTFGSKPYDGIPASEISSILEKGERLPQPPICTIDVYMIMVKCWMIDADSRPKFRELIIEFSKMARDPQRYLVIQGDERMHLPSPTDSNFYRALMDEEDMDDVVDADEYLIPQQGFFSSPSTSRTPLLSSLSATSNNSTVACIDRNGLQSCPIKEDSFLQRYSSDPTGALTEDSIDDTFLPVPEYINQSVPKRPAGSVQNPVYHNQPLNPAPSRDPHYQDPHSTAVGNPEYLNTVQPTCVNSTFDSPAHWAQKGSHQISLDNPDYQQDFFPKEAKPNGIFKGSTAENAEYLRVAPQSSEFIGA

[11] = Half life in Ba/F3 EGFR cells xenografted nude mouse liver microsomes; assay type: ADME
[12] = target: T1, Epidermal growth factor receptor; test: Inhibition of EGFR L858R/T790M/C797S triple mutant (unknown origin) expressed in mouse BaF3 cells; assay type: cell-based
NCI-H1975 = test: Growth inhibition of human NCI-H1975 cells; assay type: functional, cell-based
[13] = Oral bioavailability in rat relative to control; assay type: ADME, organism-based; details: in vivo
[14] = Oral bioavailability in mouse relative to control; assay type: ADME, organism-based; details: in vivo
[15] = target: T1, Epidermal growth factor receptor; test: Inhibition of EGFR L858R/T790M/C797S triple mutant (unknown origin) in human NCI-H1975 cell; assay type: cell-based
[16] = target: T2, Epidermal growth factor receptor; test: Inhibition of EGFR L858R/T790M double mutant (unknown origin) in human NCI-H1975 cell; assay type: cell-based
[17] = target: T1, Epidermal growth factor receptor; test: Inhibition of EGFR L858R/T790M/C797S triple mutant (unknown origin) by HTRF method
BaF3 [18] = test: Antiproliferative against in mouse BaF3 cells harbouring Del19/T790M/C797S triple mutant at 100 nM relative to control; assay type: functional
BaF3 [19] = test: cells; details: Mus musculus

T1 sequence (P00533 25-1210 T790M/C797S/L858R limits assumed): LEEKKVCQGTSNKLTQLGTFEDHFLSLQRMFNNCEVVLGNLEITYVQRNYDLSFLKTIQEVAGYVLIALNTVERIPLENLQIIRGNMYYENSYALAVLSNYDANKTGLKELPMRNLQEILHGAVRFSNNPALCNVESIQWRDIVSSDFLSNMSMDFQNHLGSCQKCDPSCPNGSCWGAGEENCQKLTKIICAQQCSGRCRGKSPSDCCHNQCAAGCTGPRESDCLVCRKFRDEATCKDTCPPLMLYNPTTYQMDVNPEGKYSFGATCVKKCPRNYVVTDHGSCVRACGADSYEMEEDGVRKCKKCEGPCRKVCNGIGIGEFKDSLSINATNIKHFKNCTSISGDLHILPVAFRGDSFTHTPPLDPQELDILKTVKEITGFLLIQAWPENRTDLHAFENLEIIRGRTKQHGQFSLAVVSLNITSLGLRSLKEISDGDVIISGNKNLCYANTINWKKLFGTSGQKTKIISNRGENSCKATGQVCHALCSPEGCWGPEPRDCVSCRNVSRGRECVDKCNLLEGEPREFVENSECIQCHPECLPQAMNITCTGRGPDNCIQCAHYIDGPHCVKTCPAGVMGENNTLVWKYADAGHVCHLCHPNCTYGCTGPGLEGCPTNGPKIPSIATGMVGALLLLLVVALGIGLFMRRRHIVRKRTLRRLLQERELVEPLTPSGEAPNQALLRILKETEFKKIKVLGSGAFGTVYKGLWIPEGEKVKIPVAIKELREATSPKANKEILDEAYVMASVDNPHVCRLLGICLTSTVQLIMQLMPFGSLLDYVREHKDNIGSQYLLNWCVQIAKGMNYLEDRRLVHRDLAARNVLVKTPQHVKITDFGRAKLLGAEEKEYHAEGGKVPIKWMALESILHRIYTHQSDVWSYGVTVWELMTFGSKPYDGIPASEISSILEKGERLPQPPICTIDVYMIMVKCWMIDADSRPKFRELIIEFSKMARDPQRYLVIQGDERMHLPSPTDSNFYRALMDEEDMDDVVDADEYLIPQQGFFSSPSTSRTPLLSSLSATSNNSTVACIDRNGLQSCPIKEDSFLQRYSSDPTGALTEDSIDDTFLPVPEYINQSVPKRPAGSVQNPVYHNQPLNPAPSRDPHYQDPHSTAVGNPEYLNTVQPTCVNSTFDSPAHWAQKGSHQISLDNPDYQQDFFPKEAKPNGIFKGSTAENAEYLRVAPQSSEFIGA

- IC50 [1]: 38.1 nM
Compound: CCC(=O)N[C@H]1CC[C@H](n2c(=O)c(-c3ccccc3Cl)cc3ccc(Nc4ccc(N5CCN(C)CC5)c(C)c4)cc32)CC1

- IC50 [2]: 0.6 nM
Compound: Cc1cc2cc(n1)-c1cnn(C)c1OCCC[C@@H](C)CN1/C(=N/C2=O)Nc2ccc(CN3CCN(C)CC3)cc21

- IC50 [2]: ≤ 100 nM
Compound: C=C(C)c1cnc(Nc2ccc(N3CCC4(CC3)CN(C)C4)cc2)nc1Nc1ccccc1P(C)(C)=O
- IC50 [3]: ≤ 100 nM

- IC50 [1]: 52 nM
- IC50 [4]: > 1000 nM
Compound: O=C1c2cc(F)ccc2Nc2ccccc2N1Cc1ccccc1

- IC50 [1]: 47.8 nM
Compound: CC(=O)N[C@H]1CC[C@H](n2c(=O)c(-c3ccccc3Cl)cc3ccc(Nc4ccc(N5CCN(C)CC5)c(C)c4)cc32)CC1

- IC50 [5]: 1.2 nM
Compound: CN(C)CCOc1ccc(Nc2ncc3nc(Sc4ccc(F)cc4)n(C4CCOCC4)c3n2)cc1

- IC50 [1]: 5 nM
Compound: O=C(Nc1nccs1)C(c1ncn2c1CCC2)N1Cc2c(F)cc(C#Cc3ccc(CN4CCC(CO)CC4)cc3)cc2C1=O (configuration not stated)

- IC50 [1]: 18 nM
Compound: CN1CCN(c2ccc(Nc3ncc4nc(Nc5ccccc5)n([C@H]5CCN(S(=O)(=O)C6CC6)C5)c4n3)cc2)CC1

Compound: C=CC(=O)Nc1cc(Nc2nccc(-c3cn(C)c4ccccc34)n2)c(OC)cc1N(C)CCN(C)C [OSIMERTINIB]
- IC50 [3]: 730 nM
- IC50 [6]: 1080 nM

- IC50 [4]: 50000 nM
- IC50 [7]: 23 nM
Compound: N#Cc1ccc(O)c(-c2nc(NCc3cccnc3)c3ccccc3n2)c1

- IC50 [8]: 210 nM
Compound: CCC(=O)N[C@H]1CC[C@@H](N2C(=O)N(c3ccccc3Cl)Cc3cnc(Nc4ccc(N5CCN(C)CC5)c(C)c4)nc32)CC1

- IC50 [4]: ≤ 0.3 nM
Compound: OCCc1nc(-c2ccc(F)cc2)c(-c2ccnc3[nH]c(-c4ccccc4)cc23)[nH]1

- Ratio IC50 (Homo sapiens): 163
Compound: Oc1ccccc1-c1nc(NCc2cccnc2)c2ccccc2n1

Compound: COc1cc2c(Nc3ccc(NC(=O)C(c4cc(F)ccc4F)N4Cc5ccccc5C4=O)cc3F)ncnc2cc1OCC1CCN(C)CC1 (configuration not stated)
- IC50 [3]: 3.54 nM

- IC50 [4]: 1000 nM
Compound: Oc1ccc(-c2nc(-c3ccnc4[nH]c(-c5ccccc5)cc34)c(-c3ccc(F)cc3)[nH]2)cc1

- IC50 [1]: 22 nM
Compound: CN1CCN(c2ccc(Nc3ncc4nc(Nc5ccc(F)cc5)n([C@H]5CCN(S(=O)(=O)C6CC6)C5)c4n3)cc2)CC1

- IC50 [2]: 790 nM
- IC50 (BaF3 [9]): 250 nM
Compound: CC(C)(O)Cn1/c(=N/C(=O)c2cc(F)cc(-c3cccnc3)c2)[nH]c2ccccc21

- IC50 [10]: 15 nM
Compound: O=C(Nc1nccs1)C(c1ccccc1)N1Cc2ccc(-c3ccc4[nH]ccc4c3)cc2C1=O (configuration not stated)

- IC50 [4]: ≤ 0.2 nM
Compound: OCCCc1nc(-c2ccc(F)cc2)c(-c2ccnc3[nH]c(-c4ccccc4)cc23)[nH]1

- half-life [11]: 600 min
Compound: COc1cc(N2CCC(N3CCN(C)CC3)CC2)c(C)cc1Nc1ncc(Br)c(Nc2ccc3nccnc3c2P(C)(C)=O)n1

- IC50 [1]: 53 nM
- IC50 [4]: 1620 nM
- IC50 [12]: 5.42 µM
Compound: CC(C)(C)n1cc(-c2cncc3ccccc23)c2c(N)ncnc21

- IC50 [4]: ≥ 50000 nM
- IC50 [7]: 17.9 nM
- Ratio IC50 (Homo sapiens): 1000
Compound: N#Cc1ccc(O)c(-c2nc(NCc3cnccn3)c3ccccc3n2)c1

- IC50 [2]: ≤ 100 nM
Compound: Cc1cc(Nc2ncc(Cl)c(Nc3ccccc3P(C)(C)=O)n2)ccc1N1CCC2(CC1)CN(C)C2
- IC50 [3]: ≤ 100 nM

- IC50 [1]: 662 nM
- IC50 (NCI-H1975): 400 nM
Compound: CN(C)C1CCN(c2ccc(Nc3cc4c(N5CCC(CO)CC5)nc(Nc5ccc(F)cc5)nc4cn3)nc2)CC1

- IC50 [7]: 0.212 nM
- half-life [11]: 1230 min
Compound: CCc1cc(Nc2ncc(Br)c(Nc3ccc4nccnc4c3P(C)(C)=O)n2)c(OC)cc1N1CCC(N2CCN(C)CC2)CC1
- IC50 [3]: 9 nM

- bioavailability [13]: 18.6%
- bioavailability [14]: 18.6%
- IC50 [15]: 1200 nM
- IC50 [16]: 3.3 µM
- IC50 [17]: 630 nM
Compound: N#Cc1ccc(O)c(-c2nc(NCc3ncccn3)c3ccccc3n2)c1

- IC50 [2]: ≤ 100 nM
Compound: CN1CC2(CCN(c3ccc(Nc4ncc(Cl)c(Nc5ccccc5P(C)(C)=O)n4)cc3Br)CC2)C1
- IC50 [3]: ≤ 100 nM

- IC50 (BaF3 [19]): 30 nM
Compound: COc1cc(N2CCC(N3CCN(C)CC3)CC2)ccc1Nc1ncc(Cl)c(Nc2ccccc2P(C)(C)=O)n1 [BRIGATINIB]
- inhibition at 0.1 µM (BaF3 [18]): 50%

- IC50 [4]: ≤ 0.3 nM
Compound: OCCCCc1nc(-c2ccc(F)cc2)c(-c2ccnc3[nH]c(-c4ccccc4)cc23)[nH]1

- IC50 [1]: 40 nM
Compound: CN1CCN(c2ccc(Nc3ncc4nc(Nc5ccccc5)n([C@@H]5CCN(S(=O)(=O)C6CC6)C5)c4n3)cc2)CC1

- IC50 [1]: 48.2 nM
- IC50 [4]: 540 nM
- IC50 [7]: 12 nM
Compound: Cn1cc(-c2cc(C(=O)/N=c3\[nH]c4ccccc4n3[C@H]3CC[C@H](O)CC3)ccn2)cn1
- IC50 [3]: 12 nM
- IC50 [6]: 48.2 nM

Compound: C=CC(=O)Nc1cc(Nc2ncc(C(=O)OC(C)C)c(-c3cc4ccccc4n3C)n2)c(OCC(F)(F)F)nc1N(C)CCN(C)C
- IC50 [3]: 9 nM

Compound: C=CC(=O)Nc1cc(Nc2ncc(C(=O)OC(C)C)c(-c3cc4ccccc4n3C3CC3)n2)c(OCC(F)(F)F)nc1N(C)CCN(C)C
- IC50 [3]: 10 nM

- IC50 [4]: ≥ 50000 nM
Compound: COC(=O)c1ccc(O)c(-c2nc(NCc3cccnc3)c3ccccc3n2)c1

- IC50 [1]: 8.5 nM
Compound: COc1cc(N(C)CCN(C)C)ccc1Nc1nccc(-c2cn(CCCO)c3ccccc23)n1

- IC50 [1]: 27.5 nM
- IC50 [4]: ≥ 1000 nM
- IC50 [12]: 0.662 µM
Compound: CCC(=O)N1CCC[C@@H](N2CC(c3cccc(F)c3Cl)=C(C)c3cnc(Nc4ccc(N5CCN(C)CC5)c(C)c4)nc32)C1

- IC50 [4]: 287 nM
Compound: CSc1nc(-c2ccc(F)cc2)c(-c2ccnc3[nH]c(-c4ccccc4)cc23)[nH]1
